Patent US20240390284A1, “IONIZABLE LIPIDS” (BRISTOL-MYERS SQUIBB COMPANY, priority 2023, published 2024)

Assays:
[1] = LNP size (average radius), Wyatt Plate Reader III; assay type: physicochemical; conditions: LNP of ionizable lipid:DSPC:cholesterol:DMG-PEG 45:10:44:1 with Cas9 mRNA and sgRNA, 0.087 mg/ml each
Method: (§1) Lipid nanoparticles (LNPs) were generated by rapid mixing. A mixture containing ionizable lipid, DSPC, cholesterol, and DMG-PEG at a molar ratio of 45:10:44:1, respectively, in ethanol was mixed with an aqueous sample containing Cas9 mRNA and synthetic sgRNA in 100 mM sodium acetate. Molar fractions were maintained for each formulation while varying the ionizable lipid. After formulation, particles immediately neutralized by dilution into Phosphate Buffered Saline (PBS). LNP size was determined using a Wyatt Plate Reader III with default settings.

HEK293 FT cells = test: Cas9 mRNA/sgRNA LNP gene editing, amplicon sequencing indel percentage (CRISPR-DAV); assay type: cell-based; conditions: LNP formulation dosed at 20 uL into 5,000 HEK293 FT cells, four day incubation
Method: as §1
(§2) Particles were functionally tested using amplicon sequencing. For testing, each formulation was dosed at 20 uL into 5,000 HEK293 FT or Jurkat cells. After a four day incubation cells were lysed and the locus of interested was amplified with PCR primers. These PCR products are then prepared for sequencing and sequenced on a MiSeq. The sequencing data is then processed and analyzed using CRISPR-DAV, which outputs indel percentages. (Table 1) For general reference, see Xuning Wang, Charles Tilford, Isaac Neuhaus, Gabe Mintier, Qi Guo, John N Feder, Stefan Kirov, CRISPR-DAV: CRISPR NGS data analysis and visualization pipeline, Bioinformatics, Volume 33, Issue 23, December 012017, Pages 3811-3812.

Jurkat cells = test: as above; assay type: cell-based; conditions: LNP formulation dosed at 20 uL into 5,000 Jurkat cells, four day incubation
Method: as §1, §2

| average Radius (nm) rep1 [1] [nm] | average Radius (nm) rep2 [1] [nm] | SMILES | Indel % rep1 HEK293 FT (HEK293 FT cells) [%] | Indel % rep2 Hek (HEK293 FT cells) [%] | Indel % rep1 Jurkat (Jurkat cells) [%] | Indel % rep2 Jurkat (Jurkat cells) [%] |
| --- | --- | --- | --- | --- | --- | --- |
| 94.25 | 90.275 | CCCCC/C=C\C/C=C\CCCC1OC(CCN(C)C)OC1CCC/C=C\C/C=C\CCCCC (stereo not drawn) [Lipid 5, {2-[4,5-Bis-((4Z,7Z)-trideca-4,7-dienyl)-[1,3]dioxolan-2-yl]-ethyl}-dimethyl-amine] | 0.09 | 0.12 | 0.11 | 0.1 |
| 177.3 | 129.475 | CCCCCC=CCC=CCCCCCCCC1OC(CCN(C)C)OC1CCCCCCCCCCCCCCCCC (stereo in doubt) [Lipid 10, (2-{4-[(8Z,11Z)-heptadeca-8,11-dien-1-yl]-5-heptadecyl-1,3-dioxolan-2-yl}ethyl)dimethylamine] | 51.22 | 63.9 | 1.75 | 1.04 |
| 135.075 | 146.35 | CCCCCCCC/C=C\CCCCCCCC1OC(CCN(C)C)OC1CCCCCCCCCCCCCCCCC (stereo not drawn) [Lipid 8, (2-{4-[(8Z)-Heptadec-8-en-1-yl]-5-heptadecyl-1,3-dioxolan-2-yl}ethyl)dimethylamine] | 67.32 | 74.04 | 2.26 | 0.37 |
| 122.675 | 109.475 | CCCCC/C=C\C/C=C\CCCCCCCC1OC(CCCN(C)C)OC1CCCCCCC/C=C\C/C=C\CCCCC (stereo not drawn) [Lipid 11] | 93.59 | 95.87 | 70.3 | 65.07 |
| 116 | 124.85 | CCCCCCCC/C=C/CCCCCCCC1OC(CCN(C)C)OC1CCCCCCCCCCCCCCCCC (stereo not drawn) [Lipid 7, (2-{4-[(8E)-heptadec-8-en-1-yl]-5-heptadecyl-1,3-dioxolan-2-yl}ethyl)dimethylamine] | 2.58 | 2.29 | 0.06 | 0.02 |
| 153.05 | 150.55 | CCCCC/C=C\C/C=C\CCCCCCCC1OC(CCN(C)C)OC1CCCCCCCCCCCCCCCCC (stereo not drawn) [Lipid 4, (2-{4-[(8Z,11Z)-heptadeca-8,11-dien-1-yl]-5-heptadecyl-1,3-dioxolan-2-yl}ethyl)dimethylamine] | 53.08 | 62.46 | 34.09 | 19.69 |
| 98.825 | 91.175 | CCCCC/C=C\C/C=C\CCCCCC1OC(CCN(C)C)OC1CCCCC/C=C\C/C=C\CCCCC (stereo not drawn) [Lipid 6, (2-{4,5-Bis [(6Z,9Z)-pentadeca-6,9-dien-1-yl]-1,3-dioxolan-2-yl}ethyl)dimethylamine] | 30.63 | 8.87 | 13.16 | 18.09 |
| 92.55 | 91.525 | CCCCCCCC/C=C\CCCCCCCC1OC(CCN(C)C)OC1CCCCCCC/C=C\CCCCCCCC (stereo not drawn) [Lipid 3, (2-{4,5-Bis [(8Z)-heptadec-8-en-1-yl]-1,3-dioxolan-2-yl}ethyl)dimethylamine] | 92.23 | 90.92 | 77.31 | 66.37 |
| 142.825 | 136.875 | CCCCCCCC/C=C/CCCCCCCC1OC(CCN(C)C)OC1CCCCCCC/C=C/CCCCCCCC (stereo not drawn) [Lipid 2, (2-{4,5-Bis [(8E)-heptadec-8-en-1-yl]-1,3-dioxolan-2-yl}ethyl)dimethylamine] | 16.5 | 41.5 | 0.15 | 0.09 |
| 105 | 101.525 | CCCCC/C=C/C/C=C/CCCCCCCC1OC(CCN(C)C)OC1CCCCCCC/C=C/C/C=C/CCCCC (stereo not drawn) [Lipid 9, (2-{4,5-Bis [(8E,11E)-heptadeca-8,11-dien-1-yl]-1,3-dioxolan-2-yl}ethyl)dimethylamine] | 84.41 | 66.39 | 15.29 | 10 |
